The source of these data is US9012419B2, “Methods and compositions related to eosinophil regulation” (University of Utah Research Foundation, priority 2006, dated 2015).

“And” between values parts separate entries of the source, which are not always exact repeats. Equal values may be shown once. Where a name gives a salt, the structure may show the parent alone. Read-outs that look alike come from different tables or passages of the source.

Assay [1] deals with IL-5 stimulated TF-1 cells. The assay is described as follows: TF-1 cell proliferation assay, IL-5 stimulated cultures. Format: cell-based, human. To be noted: for Di: Di=EPO IC-50/IL5 IC-50; for IL-5 IC-50 compared with lidocaine: in words. Here is the method: (§1) Controls and test compounds were assayed in serial dilutions, ranging from 1 mM to 0.5 uM, against TF-1 cell proliferation. Compounds were solublized in DMSO in 0.2M solutions followed by serial dilutions with the culture media.
(§2) Each dilution of the compounds was tested in triplicate in a 96 well, flat bottom tissue culture plate with 10,000 TF-1 cells per well for their abilities to inhibit IL-5 and/or EPO stimulated cultures. Wells without cells were used for the background signals. Both IL-5 and EPO stimulated cell cultures were tested in assays performed on the same day. Cultures were incubated for 72 hours in a 37° C. humidified incubator. At the end of the incubation, CellTiter AQueous One Solution (Promega, Madison, Wis.) was added for 1 to 3 hours, depending on the rate of color change. Following sufficient color change, the plates were read on a spectrophotometer (SpectraMax 190, Molecular Devices) at 490 nm.
(§3) IC-50 and […] values were calculated using the software SOFTmax Pro (Molecular Devices, Sunnyvale, Calif.).
(§4) Compounds were screened by inspecting the IC-50 values of the drug candidate on the proliferation assay. […] Potencies of the investigated compounds in inhibiting TF-1 cell proliferation were evaluated by comparing their IC-50 values relative to lidocaine. Due to the ability of TF-1 cells to be stimulated by a variety of cytokines, specificity can be evaluated by comparing IL-5 and EPO stimulated cell cultures IC-50 values. Specificity or differential inhibition (Di) values can be calculated for the investigated compounds using equation 1. Di=EPO IC-50/IL5 IC-50 (equation 1)

The subject of assay [2] is EPO stimulated TF-1 cells. Put plainly: TF-1 cell proliferation assay, EPO stimulated cultures. Format: cell-based. To be noted: Homo sapiens. Here is the method: as §1, §2, §3, §4
The conditions of assay [3]: nebulized, Hunt, cited from earlier work.
Assay [4] concerns the target T1, IL-5 (Homo sapiens, UniProt P05113).
T1 construct: Administration of the anti-IL-5 drug, mepolizumab, to patients with mild asthma reduced blood and sputum eosinophils; host or cells: endogenous IL-5 in human patients with mild asthma (in vivo)
To be noted: patients with mild asthma; Leckie, 2000; cited from earlier work.

Where [5] appears, read: Homo sapiens, TF-1, 72 h, Table 6, TF-1 cells with IL-5 (5 ng/mL), 72 hours, read-out: IL-5 IC-50.
Setting [6] is: Homo sapiens, TF-1, 72 h, Table 7, TF-1 cells with IL-5, 72 hours, read-out: IL-5 IC-50.
[7] abbreviates: Homo sapiens, TF-1, text, IL-5 stimulated TF-1 cells, read-out: IL-5 IC-50.
The mark [8] stands for this setting: Table 7, TF-1 cells with EPO (2 units/mL), 72 hours, read-out: EPO IC-50.

T1 sequence (P05113 20-134): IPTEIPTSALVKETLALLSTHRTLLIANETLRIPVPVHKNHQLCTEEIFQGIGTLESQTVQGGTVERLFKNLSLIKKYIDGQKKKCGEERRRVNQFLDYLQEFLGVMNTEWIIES

`CCN(CC)CC(=O)Nc1c(C)cccc1C` [Compound 1, Lidocaine, reference compound]: the IC50 in assay [1] (setting [5]) came to 147 µM; in assay [1] (setting [6]), 147 µM; in assay [1] (Homo sapiens, TF-1, text b313, TF-1 cell proliferation, read-out: IC-50 (fifty percent growth inhibition)) it was 147 µM; in assay [1] (setting [7]) it was 140 µM; in assay [2] (setting [8]), 200 µM. The Di in assay [1] (Table 7) came out at 1.361. Besides, in assay [3] (1996), the “prednisolone-dependent patients able to eliminate or significantly reduce steroid usage” value was 17 out of 20. Besides, the blood eosinophil levels entry in assay [3] (placebo controlled study, mild to moderate asthma, 2004) is on record as “decreased”.

As for `C[C@@H]1C[C@H]2[C@@H]3CCC4=CC(=O)C=C[C@]4(C)[C@@]3(F)[C@@H](O)C[C@]2(C)[C@@]1(O)C(=O)CO` [Compound 2, Dexamethasone, reference compound], the Di value in assay [1] (EPO IC-50/IL5 IC-50) was 5.136 and 5.14. The IC50 in assay [1] (setting [5]) turned out to be 9 µM; in assay [1] (setting [6]), 7 µM; in assay [1] (setting [7]) it was 4 µM; in assay [2] (setting [8]), 38 µM. Further, the Di in assay [1] (Table 7) worked out at 5.136.

Consider `CN1CCC(=C2c3ccccc3CC(=O)c3sccc32)CC1` [Compound 3, Ketotifen fumarate, reference compound], for which the IC50 in assay [1] (setting [5]), in assay [1] (setting [6]), in assay [1] (setting [7]) and in assay [2] (setting [8]) was 9 µM in each case. The molecule also returned a Di in assay [1] (Table 7) of 1.000.

Consider `Nc1ccc(C(=O)NCc2cccnc2)cc1` [Compound 4, 4-Amino-N-pyridin-3-yl-methyl-benzamide], for which the IC50 in assay [1] (setting [5]) was determined as 1.3 µM; in assay [1] (setting [6]), 1.3 µM; in assay [1] (setting [7]) it was 1.3 µM; in assay [2] (setting [8]), 1.9 µM. In assay [1] (Table 7), this molecule showed a Di of 1.471.

Take `O=C(CN1CCN(c2ncccn2)CC1)Nc1ccc(F)cc1F` [Compound 5, N-(2,4-difluorophenyl)-2-(4-pyrimidin-2-ylpiperazinyl)ethanamide]: the IC50 in assay [1] (setting [5]) and in assay [1] (setting [7]) was 5 µM throughout.

For `CC(C)(C)OC(=O)Nc1ccc(C(=O)NCC(=O)O)cc1` [Compound 6, Boc-4-aminohippuric Acid], the IC50 in assay [1] (setting [5]) was determined as 19 µM.

`CC1COc2c(F)c(F)cc3c(=O)c(C(=O)O)cn1c23` (stereo not drawn) [Compound 7, 9,10-Difluoro-2,3-dihydro-3-methyl-7-oxo-7H-pyrido[1,2,3-DE]-1,4-benzoxazine-6-carboxylic acid]: the IC50 in assay [1] (setting [5]) stood at 20 µM.

On to `CN1CCOc2cc(Br)ccc21` [Compound 8, 7-Bromo-4-methyl-3,4-dihydro-2H-1,4-benzoxazine], for which the IC50 in assay [1] (setting [5]) was found to be 24 µM.

With `Cc1cccc(C)c1NC(=O)c1ccnc2ccccc12` [Compound 9, N-(2,6-dimethylphenyl)quinoline-4-carboxamide], in assay [1] (setting [5]), the IC50 was found to be 24 µM. Further, in assay [1], the “IL-5 IC-50 compared with lidocaine” value was “lower than lidocaine's”.

In the case of `O=C(O)COC1Cc2ccccc2CN1` (stereo not drawn) [Compound 10, 3-Carboxymethoxy-1,2,3,4-Tetrahydroisoquinol], the IC50 in assay [1] (setting [5]) was found to be 26 µM.

In the case of `C[C@@H](O)[C@H](NC(=O)c1ccccc1)C(=O)O` [Compound 11, N-Benzoyl-L-Threonine], the IC50 in assay [1] (setting [5]) came to 30 µM.

Take `O=C(O)C1CNc2ccccc2O1` (stereo not drawn) [Compound 12, 3,4-Dihydro-2H-1,4-Benzoxazine-2-Carboxylic Acid]: the IC50 in assay [1] (setting [5]) was found to be 38 µM.

Consider `CCCCOc1cc(C(=O)NCCN(CC)CC)c2ccccc2n1` [Compound 13, Dibucaine Hydrochloride, reference compound], for which the IC50 in assay [1] (setting [5]) was 48 µM.

For `Cc1cccc(C)c1NC(=O)C(C)N` (stereo not drawn) [Compound 14, Tocainide HCL, reference compound], in assay [1] (setting [5]), the IC50 stood at 49 µM.

Turning to `CCCCCC(=O)Nc1c(C)cccc1C` [Compound 15, N-(2,6-dimethylphenyl)hexanamide], the IC50 in assay [1] (setting [5]) turned out to be 62 µM; in assay [1] (setting [6]) it was 62 µM; in assay [2] (setting [8]), 137 µM. The Di in assay [1] (Table 7) stood at 2.210. Further, the “IL-5 IC-50 compared with lidocaine” value in assay [1] is given as “lower than lidocaine's”.

On to `Nc1ccc2c(c1)OCCO2` [Compound 16, 3,4-Ethylenedioxyaniline], for which the IC50 in assay [1] (setting [5]) stood at 69 µM; in assay [1] (setting [6]) it was 69 µM; in assay [2] (setting [8]), 136 µM. The Di in assay [1] (Table 7) was 1.971.

Regarding `CCN(CC)CCOC(=O)c1ccc(N)cc1` [Compound 17, Procaine, reference compound], the values for the IC50 in assay [1] (setting [5]), in assay [1] (setting [6]) and in assay [2] (setting [8]) were 71 µM, 71 µM and 109 µM, respectively. The same molecule yielded a Di in assay [1] (Table 7) of 1.535.

As for `Cc1cccc(C)c1NC(=O)C(C)(C)C` [Compound 18, N-(2,6-dimethylphenyl)pivalamide], the IC50 in assay [1] (setting [5]) turned out to be 79 µM. For the same molecule, the “IL-5 IC-50 compared with lidocaine” value in assay [1] is “lower than lidocaine's”.

In the case of `CCN(CC)CC(=O)Nc1c(C)cccc1C.Cl` [Compound 19, Lidocaine HCL, reference compound], the IC50 in assay [1] (Homo sapiens, TF-1, 72 h, read-out: IL-5 IC-50) was determined as 84 µM; in assay [2] (TF-1, 72 h, read-out: EPO IC-50, Table 7, TF-1 cells with EPO (2 units/mL)) it was 276 µM. The Di in assay [1] (Table 7) is reported as 3.286.

In the case of `Cc1ccccc1C(=O)NCc1cccnc1` [Compound 20, 2-methyl-N-(3-pyridinylmethyl)benzamide], the results for the IC50 in assay [1] (setting [5]), in assay [1] (setting [6]) and in assay [2] (setting [8]) were 90 µM, 90 µM and 153 µM, respectively. The molecule further showed a Di in assay [1] (Table 7) of 1.700.

In the case of `CN1CCOc2cc(C(=O)O)ccc21` [Compound 21, 4-methyl-3,4-dihydro 2H-1,4-benoxazine 7 carboxylic acid], the IC50 in assay [1] (setting [5]) amounted to 92 µM; in assay [1] (setting [6]), 91.8 µM; in assay [2] (setting [8]), 130 µM. Further, in assay [1] (Table 7), the Di stood at 1.412.

`Cc1cccc(C)c1NC(=O)Cc1ccccc1` [Compound 22, N-(2,6-dimethylphenyl)-2-phenylacetamide]: the IC50 in assay [1] (setting [5]) turned out to be 96 µM; in assay [1] (setting [6]) it was 95.5 µM; in assay [2] (setting [8]), 129 µM. In assay [1] (Table 7), this molecule yielded a Di of 1.351. Also, in assay [1], the “IL-5 IC-50 compared with lidocaine” value was “lower than lidocaine's”.

As to `c1ccc2c(c1)OCC(C1=NCCN1)O2` (stereo not drawn) [Compound 23, Idazoxan Hydrochloride, reference compound], the IC50 in assay [1] (setting [5]) was determined as 97 µM.

Regarding `CCCCOc1cc(C(=O)OCCN(CC)CC)ccc1N` [Compound 24, Benoxinate, reference compound], in assay [1] (setting [5]), the IC50 was found to be 98 µM.

Turning to `CCCCN1CCCCC1C(=O)Nc1c(C)cccc1C` (stereo not drawn) [Compound 25, Bupivicaine Hydrochloride, reference compound], the IC50 in assay [1] (setting [5]) came to 107 µM.

Consider `Cc1cccc(C)c1NC(=O)CCC(C)C` [Compound 26, 4-methyl-N-(2,6-dimethylphenyl)-pentanamide], for which, in assay [1] (setting [5]), the IC50 was 119 µM. Besides, the “IL-5 IC-50 compared with lidocaine” value in assay [1] is “lower than lidocaine's”.

`CC[N+](CC)(CC(=O)Nc1c(C)cccc1C)Cc1ccccc1` [Compound 28, Denatonium Saccharide]: in assay [1] (setting [5]), the IC50 worked out at 136 µM.

Consider “Disopyramide [Compound 27, reference compound]”, for which the IC50 in assay [1] (Table 6, TF-1 cells with IL-5 (5 ng/mL), 72 hours, read-out: IL-5 IC-50) was 129 µM.

B1: mepolizumab: anti-IL-5 drug (antibody, chains of the INN, looked up, V domains shown)
VH: QVTLRESGPALVKPTQTLTLTCTVSGFSLTSYSVHWVRQPPGKGLEWLGVIWASGGTDYNSALMSRLSISKDTSRNQVVLTMTNMDPVDTATYYCARDPPSSLLRLDYWGRGTPVTVSS
VL: DIVMTQSPDSLAVSLGERATINCKSSQSLLNSGNQKNYLAWYQQKPGQPPKLLIYGASTRESGVPDRFSGSGSGTDFTLTISSLQAEDVAVYYCQNVHSFPFTFGGGTKLEIK
Take B1: the “blood and sputum eosinophils” value in assay [4] is “reduced”.
